# Data as given in patent publication US12491226B2, “Mastic-derived natural protectants” (BARENTZ NORTH AMERICA, LLC, priority 2018, dated 2025).
# What was measured:
# mixture of bacteria = test: CTFA Preservative Challenge Test on shampoo, mixed bacteria (with Kull synergism calculation); assay type: cell-based; conditions: for Mixed Bacteria Day 7 Count / Mixed Bacteria Day 14 Count: shampoo containing sample, initial count 4×10^6 cfu/mL; for Mixed Bacteria Day 7 Count: surviving organisms on day 7; for Mixed Bacteria Day 7 kill reduction / Mixed Bacteria Day 14 kill reduction: shampoo, versus initial count 4×10^6 cfu/mL; for Mixed Bacteria Day 14 Count: surviving organisms on day 14
# Protocol: (§1) The CTFA Preservative Challenge Test was performed on a shampoo containing the samples below against a mixture of fungi (C. albicans (ATCC #10231) and A. brasiliensis (ATCC #16404)) having an initial count of 7.9×10^5 cfu/mL or a mixture of bacteria having an initial count of 4×10^6 cfu/mL. The shampoos inoculated with bacteria were allowed to stand for 14 days and the shampoos inoculated with fungi were allowed to stand for 7 days. The samples were evaluated for surviving organisms on day 7 for fungi-innoculated shampoos and days 7 and 14 for bacteria-innoculated shampoos.
# From the table, synergism for the combinations above against mixed bacteria in shampoo was calculated by the method described in C. E. Kull et al., “Mixtures of Quaternary Ammonium Compounds and Long-chain Fatty Acids as Antifungal Agents”, Applied Microbiology, 9:538-541 (1961). The synergism value (QA/Qa+QB/Qb) was determined. […] Qa is the concentration of the first component alone (in percent by weight) required to yield 100% retardation of the bacteria. Qb is the concentration of the second component alone (in percent by weight) required to yield 100% retardation of the bacteria. When the value of (QA/Qa+QB/Qb) is less than one, the mixture is synergistic. Values for (QA/Qa+QB/Qb) of 1 and greater represent an additive effect and an antagonistic effect, respectively. Here, (QA/Qa+QB/Qb) is (([…])+([…]) or <0.75. Accordingly, the mixture of 0.2% mastic oil and 0.05% piroctine olamine is synergistic. The mixture of 2% mastic water and 2% ELA, the mixture of 2% mastic water and 0.5% sodium p-anisate, and the mixture of 4% mastic water and 1% quinic acid are also synergistic.
# [1] = test system: mixture of fungi (C. albicans (ATCC #10231) and A. brasiliensis (ATCC #16404)); test: CTFA Preservative Challenge Test on shampoo, mixed fungi; assay type: cell-based; conditions: for Mixed Fungi Day 7 Count: shampoo containing sample, initial count 7.9×10^5 cfu/mL, surviving organisms on day 7; for Mixed Fungi Day 7 kill reduction: shampoo, versus initial count 7.9×10^5 cfu/mL
# Protocol: as §1
smiles,measurement,setting,value
"COc1ccc(C(=O)[O-])cc1.[Na+] [1% Sodium p-anisate, sodium p-anisate]",Mixed Bacteria Day 7 Count,mixture of bacteria,2.3 × 10^4 cfu/mL
same,Mixed Bacteria Day 7 kill reduction,mixture of bacteria,(<99% kill
"Cc1cc(CC(C)CC(C)(C)C)n(O)c(=O)c1.NCCO (stereo not drawn) [0.1% Piroctine olamine, Piroctine olamine]",Mixed Fungi Day 7 Count,[1],5.9 × 10^4 cfu/mL
same,Mixed Fungi Day 7 kill reduction,[1],(<90% kill
same,Mixed Bacteria Day 7 Count,mixture of bacteria,1.2 × 10^5 cfu/mL
same,Mixed Bacteria Day 14 Count,mixture of bacteria,1.3 × 10^5 cfu/mL
same,Mixed Bacteria Day 7 kill reduction,mixture of bacteria,(<97% kill
same,Mixed Bacteria Day 14 kill reduction,mixture of bacteria,(<97% kill
"CCCCCCCCCCCC(=O)N[C@@H](CCCN=C(N)N)C(=O)OCC.Cl [5% ELA HCl, ethyl lauroyl arginate HCl]",Mixed Bacteria Day 14 Count,mixture of bacteria,1.3 × 10^2 cfu/mL
same,Mixed Bacteria Day 14 kill reduction,mixture of bacteria,(<99.9% kill
"O=C(O)[C@]1(O)C[C@@H](O)[C@@H](O)[C@H](O)C1 [2.5% Quinic acid, quinic acid]",Mixed Fungi Day 7 Count,[1],1.4 × 10^5 cfu/mL
same,Mixed Fungi Day 7 kill reduction,[1],(<90% kill
